According to ChEMBL document CHEMBL1123072, “1,3-Dialkyl-8-(p-sulfophenyl)xanthines: potent water-soluble antagonists for A1- and A2-adenosine receptors” (J Med Chem, 1985):
Converted amounts (≈) assume the structure as drawn.

Experiments:
[1] = target: T1, Adenosine receptor A1 (Rattus norvegicus, UniProt P25099); experiment: Antagonism of binding of 1 nM [3H]cyclohexyladenosine to adenosine A1 receptors on rat cortical membranes; assay type: cell membranes, Membrane
T1 sequence (P25099 whole entry): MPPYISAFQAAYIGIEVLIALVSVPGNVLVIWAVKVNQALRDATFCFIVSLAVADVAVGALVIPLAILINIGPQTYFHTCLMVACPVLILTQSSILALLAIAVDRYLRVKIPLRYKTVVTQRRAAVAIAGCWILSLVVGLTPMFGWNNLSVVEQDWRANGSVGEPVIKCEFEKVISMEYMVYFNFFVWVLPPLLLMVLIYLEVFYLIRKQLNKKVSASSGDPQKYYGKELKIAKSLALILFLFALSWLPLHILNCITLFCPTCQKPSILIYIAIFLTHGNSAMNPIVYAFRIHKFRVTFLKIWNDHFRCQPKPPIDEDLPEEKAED

[2] = target: T2, Adenosine receptor A2a (Cavia porcellus, UniProt P46616)
T2 sequence (P46616 whole entry): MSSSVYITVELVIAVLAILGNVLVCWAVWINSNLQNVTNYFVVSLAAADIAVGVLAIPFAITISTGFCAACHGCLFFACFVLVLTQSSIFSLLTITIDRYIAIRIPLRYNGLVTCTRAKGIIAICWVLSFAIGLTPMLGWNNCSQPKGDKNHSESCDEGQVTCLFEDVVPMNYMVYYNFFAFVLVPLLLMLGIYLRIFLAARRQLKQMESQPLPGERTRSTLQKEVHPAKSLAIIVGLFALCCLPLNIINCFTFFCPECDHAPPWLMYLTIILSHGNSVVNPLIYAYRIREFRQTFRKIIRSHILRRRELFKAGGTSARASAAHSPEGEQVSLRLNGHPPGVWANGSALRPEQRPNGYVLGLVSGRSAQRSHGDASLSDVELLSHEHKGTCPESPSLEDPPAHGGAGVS
Description: Antagonism of cyclic [3H]AMP accumulation in guinea pig cerebral cortical slices (elicited by 15 uM 2-chloroadenosine at adenosine A2 receptor)

[3] = Solubility in water; assay type: physicochemical; conditions: read-out: S
[4] = target: T2, Adenosine receptor A2a; experiment: Antagonism of cyclic [3H]AMP accumulation elicited by 15 uM 2-chloroadenosine in [3H]adenine-labeled guinea pig cerebral cortical slices at A2 receptor; assay type: functional

Cn1c(=O)c2[nH]c(-c3cccc(N)c3)nc2n(C)c1=O
Ki [1]: 1.1 µM
Ki [2]: 0.9 µM

Cn1c(=O)c2[nH]c(-c3ccc(C(=O)O)cc3)nc2n(C)c1=O
solubility [3]: 90 µM (≈ 27 µg/mL)
Ki [2]: 2.5 µM

Cn1c(=O)c2[nH]c(-c3cccc(O)c3)nc2n(C)c1=O
Ki [1]: 0.34 µM
Ki [2]: 1 µM

Cn1c(=O)c2nc(-c3ccccc3N)[nH]c2n(C)c1=O
Ki [1]: 0.85 µM
Ki [2]: 1.7 µM

Cn1c(=O)c2nc(-c3ccccc3C(=O)O)[nH]c2n(C)c1=O
Ki [1]: > 50 µM
Ki [2]: > 30 µM

CCCn1c(=O)c2nc[nH]c2n(CCC)c1=O
Ki [1]: 0.7 µM

CC(C)CCn1c(=O)c2nc(-c3ccccc3)[nH]c2n(CC(C)C)c1=O
solubility [3]: 10 µM (≈ 3.54 µg/mL)
Ki [1]: 1.8 µM
Ki [2]: > 10 µM

CC(C)CCn1c(=O)c2[nH]cnc2n(CC(C)C)c1=O
Ki [1]: 13 µM
Ki [2]: > 150 µM

Cn1c(=O)c2c(nc(-c3ccccc3)n2C)n(C)c1=O
Ki [1]: 17 µM
Ki [2]: 27 µM

Cn1c(=O)c2nc(-c3ccc(O)cc3)[nH]c2n(C)c1=O
solubility [3]: 5 µM (≈ 1.36 µg/mL)
Ki [1]: 0.05 µM
Ki [2]: 0.13 µM

CCCn1c(=O)c2nc(-c3ccc(O)cc3)[nH]c2n(CCC)c1=O
Ki [1]: 0.0029 µM
Ki [2]: 0.05 µM

CCCn1c(=O)c2[nH]c(-c3ccc(Cl)cc3N)nc2n(CCC)c1=O
Ki [1]: 0.0025 µM
Ki [2]: 1 µM

Cn1c(=O)c2[nH]c(-c3cccc(C(=O)O)c3)nc2n(C)c1=O
Ki [1]: 32 µM
Ki [2]: 15 µM

Cn1c(=O)c2[nH]c(-c3ccc(N)cc3)nc2n(C)c1=O
Ki [1]: 0.23 µM
Ki [2]: 0.13 µM

CC(C)CCn1c(=O)c2[nH]c(-c3ccc(S(=O)(=O)O)cc3)nc2n(CC(C)C)c1=O
Ki [1]: 3.5 µM
Ki [2]: 7 µM

Nc1nc(Cl)nc2c1ncn2[C@@H]1O[C@H](CO)[C@@H](O)[C@H]1O
EC50 [4]: 8 µM

Cn1c(=O)c2[nH]c(-c3ccccc3O)nc2n(C)c1=O
Ki [1]: 0.75 µM
Ki [2]: 1.7 µM

CCCn1c(=O)c2[nH]c(-c3ccc(S(=O)(=O)O)cc3)nc2n(CCC)c1=O
Ki [1]: 0.21 µM
Ki [2]: 0.71 µM

CCCn1c(=O)c2nc(-c3ccc(C(=O)O)cc3)[nH]c2n(CCC)c1=O
Ki [1]: 0.17 µM

Cn1c(=O)c2[nH]c(-c3ccc(S(=O)(=O)O)cc3)nc2n(C)c1=O
solubility [3]: > 20000 µM
Ki [2]: 6.3 µM

Cc1nc2c(=O)n(C)c(=O)n(C)c2[nH]1
Ki [1]: 6.5 µM
Ki [2]: 14 µM

Cn1c(=O)c2[nH]c(-c3ccccc3)nc2n(C)c1=O [8-PHENYL THEOPHYLLINE]
Ki [2]: 0.55 µM
